Consider seven compounds from the supplement of paper PMC4862054.

Holding throughout (details): incubation time: 72 h
Assay [1] concerns CAL-51. The assay can be described thus: normalised response (% of control), CellTiter-Glo; higher = more viable cells (100 = DMSO, 0 = benzethonium chloride kill control). In outline: (§1)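 Each value is the plate-normalised signal at one concentration of the series. Breast cancer cell lines (20 µl suspension) were incubated 72 h in 384-well plates with compound at 5 concentrations in 10-fold steps over a compound-specific 10,000-fold range. CellTox Green and then CellTiter-Glo were read, and each plate was scaled to 0.1 % DMSO (100) and a positive kill control (0).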

Assay [2] concerns BT-549. The description is as above. Put shortly: as §1
Assay [3] concerns HDQ-P1. The assay is described as above. In outline:
as §1

Assay [4] deals with MCF-10A. The assay is described as above. Put shortly:
as §1

Assay [5] deals with MFM-223. The description is as above. Put shortly:
as §1

Assay [6] has as its system CAL-85-1. The description is as above. In outline:
as §1

For assay [7], the system named is MDA-MB-468. The description is as above. In outline: as §1
Assay [8] relates to BT-474. Described as above. Put shortly: as §1
Assay [9] relates to HCC1599. Described as above. Put shortly: as §1
For assay [10], the system named is MDA-MB-436. The assay is described as above. In outline: as §1
Assay [11] relates to CAL-148. The description is as above. Put shortly:
as §1

For assay [12], the system named is Hs578T. The description is as above. Put shortly:
as §1

The test system of assay [13] is CAL-120. Described as above. Put shortly: as §1
The test system of assay [14] is MDA-MB-453. Described as above. Put shortly: as §1
Assay [15] deals with MDA-MB-231. The description is as above. Put shortly:
as §1

Assay [16] deals with HCC1143. The assay is described as above. Put shortly:
as §1

Assay [17] deals with SK-BR-3. The assay is described as above. Put shortly:
as §1

For assay [18], the system named is CAL-51. The assay can be described thus: normalised response (% of control), CellTox Green; higher = less cell death (100 = DMSO, 0 = benzethonium chloride kill control). Put shortly: as §1
Assay [19] relates to BT-549. The assay is described as above. Put shortly:
as §1

In assay [20] the test system is HDQ-P1. Described as above. Put shortly:
as §1

The test system of assay [21] is MCF-10A. Described as above. Put shortly: as §1
The subject of assay [22] is MFM-223. Described as above. Put shortly: as §1
For assay [23], the system named is CAL-85-1. The assay is described as above. In outline:
as §1

Assay [24] concerns BT-474. Described as above. Put shortly: as §1
The subject of assay [25] is HCC1599. Described as above. Put shortly: as §1
Assay [26] has as its system MDA-MB-436. Described as above. In outline: as §1
Assay [27] deals with Hs578T. The assay is described as above. In outline: as §1
Assay [28] deals with CAL-120. The description is as above. Put shortly:
as §1

Assay [29] concerns MDA-MB-453. The description is as above. Put shortly: as §1
For assay [30], the system named is MDA-MB-231. Described as above. Put shortly:
as §1

Assay [31] relates to HCC1143. The description is as above. Put shortly: as §1
In assay [32] the test system is HCC1937. Described as above. Put shortly:
as §1

On to `Cc1c(N)nc([C@H](CC(N)=O)NC[C@H](N)C(N)=O)nc1C(=O)N[C@H](C(=O)N[C@H](C)[C@@H](O)[C@H](C)C(=O)N[C@H](C(=O)NCCc1nc(-c2nc(C(=O)NCCC[S+](C)C)cs2)cs1)[C@@H](C)O)[C@@H](OC1OC(CO)C(O)C(O)C1OC1OC(CO)C(O)C(OC(N)=O)C1O)c1cnc[nH]1` (stereo partly specified) [Bleomycin] (1000 nM), for which the normalised response in assay [1] was 49%; in [2] it was 66.7%; in assay [3], 103%; in assay [4] it was 96%; in [5] it was 99.6%; in [6], 91.9%. Moreover, the normalised response in [7] amounted to 86.1%; in [8], 91.3%; in assay [9], 105%; in assay [10], 82.3%; in assay [11], 82.1%; in [12], 86.5%. For the same compound, the normalised response in assay [13] came to 91.9%; in assay [14], 91%; in [15], 88.3%; in [16], 83.1%; in assay [17], 84.8%; in assay [18], 44.5%. In addition, the normalised response in assay [19] was 92%; in assay [20] it was 54.8%; in assay [21], 92.5%; in assay [22] it was 88%; in assay [23], 92.7%; in assay [24], 98.2%. Moreover, the normalised response in assay [25] came out at 94.8%; in assay [26] it was 84.5%; in assay [27], 67.4%; in [28], 92.9%; in assay [29], 99.1%; in [30], 67.9%. In addition, in [31], the normalised response came to 99.9%.
As to `Cc1c(N)nc([C@H](CC(N)=O)NC[C@H](N)C(N)=O)nc1C(=O)N[C@H](C(=O)N[C@H](C)[C@@H](O)[C@H](C)C(=O)N[C@H](C(=O)NCCc1nc(-c2nc(C(=O)NCCC[S+](C)C)cs2)cs1)[C@@H](C)O)[C@@H](OC1OC(CO)C(O)C(O)C1OC1OC(CO)C(O)C(OC(N)=O)C1O)c1cnc[nH]1` (stereo partly specified) [Bleomycin] (10000 nM), the normalised response in assay [18] is 43.9%; in [19], 82.7%; in assay [20], 95.6%; in assay [21], 112%; in [22], 94.4%; in assay [23] it was 81.7%. In addition, the normalised response in [24] was found to be 93.2%; in [25], 84%; in assay [26], 68%; in [27], 24.7%; in assay [28], 99.4%; in assay [29] it was 90.6%. Also, the normalised response was determined as 80.1% in assay [32], 78% in assay [30] and 93.6% in assay [31].
On to `Cc1cc2c(F)c(Oc3ncnn4cc(OC[C@@H](C)O)c(C)c34)ccc2[nH]1` [Brivanib] (100 nM), for which the normalised response in assay [1] was determined as 80.6%; in assay [2], 94%; in assay [3] it was 104%; in [4], 111%; in [5], 107%; in assay [6], 97.1%. Also, the normalised response turned out to be 108% in assay [7]; 107% in [8]; 126% in assay [9]; 110% in assay [10]; 105% in assay [11]; 98.8% in assay [12]. Also, the normalised response in assay [13] is 109%; in [14], 97%; in assay [15], 107%; in assay [16] it was 107%; in assay [17] it was 103%; in assay [18], 99.4%. Moreover, the normalised response turned out to be 117% in [19]; 106% in [20]; 107% in [21]; 102% in [22]; 103% in assay [23]; 100% in [24]. Further, the normalised response in assay [25] came to 99.8%; in [26], 81.2%; in [28], 104%; in assay [29], 103%; in assay [32], 101%; in [30], 115%. Besides, the normalised response in [31] is 79.8%.
For `CCCCCOC(=O)Nc1nc(=O)n([C@@H]2O[C@H](C)[C@@H](O)[C@H]2O)cc1F` [Capecitabine] (10000 nM), the normalised response in assay [18] came to 99.4%; in [19], 117%; in assay [20] it was 94.7%; in assay [21], 74.1%; in [23], 87.2%; in assay [24], 97.2%. Also, the normalised response in assay [25] came out at 102%; in assay [26], 103%; in assay [27], 56.1%; in assay [28] it was 90.2%; in assay [29], 104%; in [32], 87.1%. Besides, the normalised response amounted to 110% in assay [30] and 122% in assay [31].
As to `CCN(CC)CCOc1ccc(C(=C(Cl)c2ccccc2)c2ccccc2)cc1` [Clomifene] (10000 nM), the normalised response worked out at 109% in assay [18]; 82.5% in assay [19]; 60.3% in assay [21]; 40.9% in [22]; 25.3% in assay [23]; 5.17% in assay [24]. Further, the normalised response in assay [25] was 48.6%; in assay [26] it was 89.1%; in [27] it was -60.1%; in [29], 18.9%; in [32] it was -34.5%; in assay [30], -87.9%. The normalised response in [31] amounted to 112%.
For the compound `NC(=O)NO` [Hydroxyurea] (10000 nM), the normalised response in assay [1] was found to be 45.2%; in assay [2], 90.8%; in assay [3], 100%; in assay [4], 109%; in assay [5], 105%; in [6] it was 98.2%. For the same compound, the normalised response worked out at 107% in [7]; 92.7% in [8]; 111% in [9]; 97.7% in assay [10]; 101% in assay [11]; 109% in [12]. Further, the normalised response in [13] is 95.7%; in assay [14], 114%; in [15], 103%; in [16], 105%; in assay [17] it was 110%; in assay [18] it was 69.1%. Besides, the normalised response in assay [19] came to 115%; in assay [21], 99.2%; in [22], 79.9%; in [23], 116%; in assay [24], 100%; in [25], 103%. The normalised response in assay [26] is 84.6%; in assay [28] it was 95.1%; in assay [29], 106%; in [30] it was 113%; in assay [31], 98.7%.
Regarding `NC(=O)NO` [Hydroxyurea] (100000 nM), the normalised response is 5.76% in assay [18]; 109% in [19]; 110% in [20]; 96.7% in [21]; 96.8% in assay [22]; 85.8% in assay [23]. The normalised response stood at 97.4% in [24]; 104% in assay [25]; 101% in assay [28]; 91.5% in assay [29]; 111% in assay [32]; 118% in [30]. Besides, the normalised response in [31] came to 118%.
